Test results reported in article PMC10082216 (Nature Communications, 2023).
Where two headings read alike, the source gives them in different places.

Test: TD-6450 phase I clinical study (SAD/MAD): pharmacokinetics
Format: in vivo, human
Conditions: human; for TD-6450 Concentration (ng/ml), Female subjects: in vivo; for TD-6450 Concentration (ng/ml), Female subjects / concentration at 1 h / concentration at 2 h / concentration at 3 h / concentration at 4 h / concentration at 6 h / concentration at 8 h / concentration at 12 h / concentration at 15 min / concentration at 24 h / concentration at 30 min / concentration at 48 h / concentration at 72 h / concentration at 96 h / concentration at 120 h / concentration at 144 h / concentration at 168 h: female; for concentration at 1 h / concentration at 2 h / concentration at 3 h / concentration at 4 h / concentration at 6 h / concentration at 8 h / concentration at 12 h / concentration at 15 min / concentration at 24 h / concentration at 30 min / concentration at 48 h / concentration at 72 h / concentration at 96 h / concentration at 120 h / concentration at 144 h / concentration at 168 h: Female subjects, read-out: Concentration
Protocol: Primary and secondary outcomes were pre-defined as follows: Safety and tolerability as a primary outcome, pharmacokinetics as a secondary outcome. Safety and tolerability were evaluated using standard measures, including adverse event (AE) monitoring, clinical laboratory tests (hematology, serum chemistry, coagulation, and urinalysis), vital signs, physical examinations, and 12-lead electrocardiograms (ECGs). […]
This study was conducted in two parts, Part A (SAD) and Part B (MAD). For the Part A, the age of enrolled subjects ranged from 20 to 60 years, with a mean age range of 32.1 to 46.2 years. Most subjects were male (73 total subjects) and most were white (55 subjects) or black (22 subjects). For Part B of the study, ages ranged from 23 to 60 years with a similar mean age across treatment groups. Most subjects were male (25 total subjects) and all were either white (18 subjects) or black (12 subjects). For each part of the study, the mean body mass index (BMI) and creatinine clearance were similar across treatment groups. […] Part A: Healthy subjects were sequentially enrolled and randomly assigned to each dose cohort (up to 10 dose-ascending cohorts were planned, including a fed arm in the food effect cohort) to receive either a single dose of TD-6450 or placebo. For each dose cohort, 8 subjects were randomized in a 3:1 ratio (6 subjects received TD-6450 and 2 subjects received placebo). The starting dose of TD-6450 was 0.5 mg with a planned maximum dose of 1000 mg. Upon review of the 500-mg cohort PK data, the decision was made to not escalate to the 1000-mg cohort because of exposure saturation at ≥ 500 mg. The following doses were administered: 0.5 mg, 1.5 mg, 5 mg, 15 mg, 30 mg, 60 mg, 120 mg, 240 mg, and 500 mg. Part B: Healthy subjects were sequentially enrolled in 3 ascending dose cohorts (TD-6450 60 mg, 120 mg, and 240 mg) and randomly assigned to receive either TD-6450 or placebo as once daily doses for 14 days. For each dose cohort, 10 subjects were randomized in a 4:1 ratio (8 subjects received TD-6450 and 2 subjects received placebo). Blinded safety, tolerability, and available PK data after each dose cohort were reviewed by the Safety Data Review Committee (SDRC) before escalation to the next dosing cohort for both part A and B. Subjects of the clinical study were randomly assigned to each cohort. Randomizations codes were assigned to the subjects. All study subjects, study investigators, and the sponsor’s staff involved in the conduct of the study were blinded to treatment assignment. The only personnel who had access to the randomization code before database lock were: The pharmacist or pharmacy staff member who prepared drug or placebo capsules for administration to the subject according to the randomization code and the bioanalytical contract laboratory that analyzed the PK samples (plasma and urine).

## CNC(=O)N1C[C@@H](C)N(c2ccc(C(=O)Nc3ccc(-c4ccc(-c5c[nH]c([C@@H]6CCCN6C(=O)[C@@H](NC(=O)OC)C(C)C)n5)cc4)c(OC(F)(F)F)c3)cn2)C[C@@H]1C [TD-6450]
Both sexes, plasma, oral, 120 mg, MAD 120 mg, day 1, read-out: Cmax Mean ± SD, D1
  Cmax at 1 day: 216 ± 58 nM
Both sexes, plasma, oral, 120 mg, MAD 120 mg, day 14, read-out: Cmax Mean ± SD, D14
  Cmax at 14 day: 1010 ± 349 nM
Both sexes, plasma, oral, 120 mg, MAD 120 mg, day 14, read-out: t1/2 Mean ± SD, D14 (converted)
  half-life at 14 day: 66.4 ± 15 h
Both sexes, plasma, oral, 120 mg, SAD 120 mg, read-out: Cmax Mean ± SD
  Cmax: 174 ± 93.9 nM
Both sexes, plasma, oral, 120 mg, SAD 120 mg, read-out: t1/2 Mean ± SD (converted)
  half-life: 78.4 ± 13 h
Both sexes, plasma, oral, 240 mg, MAD 240 mg, day 1, read-out: Cmax Mean ± SD, D1
  Cmax: 459 ± 203 nM
Both sexes, plasma, oral, 240 mg, MAD 240 mg, day 14, read-out: Cmax Mean ± SD, D14
  Cmax: 1770 ± 218 nM
Both sexes, plasma, oral, 240 mg, MAD 240 mg, day 14, read-out: t1/2 Mean ± SD, D14 (converted)
  half-life: 59.8 ± 12 h
Both sexes, plasma, oral, 240 mg, SAD 240 mg, read-out: Cmax Mean ± SD
  Cmax: 278 ± 134 nM
Both sexes, plasma, oral, 240 mg, SAD 240 mg, read-out: t1/2 Mean ± SD (converted)
  half-life: 64.7 ± 7.7 h
Both sexes, plasma, oral, 500 mg, SAD 500 mg, read-out: Cmax Mean ± SD
  Cmax: 244 ± 114 nM
Both sexes, plasma, oral, 500 mg, SAD 500 mg, read-out: t1/2 Mean ± SD (converted)
  half-life: 54.9 ± 5.5 h
4 h
  TD-6450 Concentration (ng/ml), Female subjects: 48.60 ng/mL
6 h
  TD-6450 Concentration (ng/ml), Female subjects: 213.00 ng/mL
8 h
  TD-6450 Concentration (ng/ml), Female subjects: 215.00 ng/mL
plasma, oral, 0.5 mg, SAD arm NCT02022306, Dose 0.50, 1 Hour
  concentration at 1 h: 0 ng/mL
plasma, oral, 0.5 mg, SAD arm NCT02022306, Dose 0.50, 2 Hours
  concentration at 2 h: 0 ng/mL
plasma, oral, 0.5 mg, SAD arm NCT02022306, Dose 0.50, 3 Hours
  concentration at 3 h: 0.52 ng/mL
plasma, oral, 0.5 mg, SAD arm NCT02022306, Dose 0.50, 4 Hours
  concentration at 4 h: 0.48 ng/mL
plasma, oral, 0.5 mg, SAD arm NCT02022306, Dose 0.50, 6 Hours
  concentration at 6 h: 0.67 ng/mL
plasma, oral, 0.5 mg, SAD arm NCT02022306, Dose 0.50, 8 Hours
  concentration at 8 h: 0.31 ng/mL
plasma, oral, 0.5 mg, SAD arm NCT02022306, Dose 0.50, 12 Hours
  concentration at 12 h: 0 ng/mL
plasma, oral, 0.5 mg, SAD arm NCT02022306, Dose 0.50, 15 Minutes
  concentration at 15 min: 0 ng/mL
plasma, oral, 0.5 mg, SAD arm NCT02022306, Dose 0.50, 24 Hours
  concentration at 24 h: 0 ng/mL
plasma, oral, 0.5 mg, SAD arm NCT02022306, Dose 0.50, 30 Minutes
  concentration at 30 min: 0 ng/mL
plasma, oral, 0.5 mg, SAD arm NCT02022306, Dose 0.50, 48 Hours
  concentration at 48 h: 0.26 ng/mL
plasma, oral, 0.5 mg, SAD arm NCT02022306, Dose 0.50, 72 Hours
  concentration at 72 h: 0.28 ng/mL
plasma, oral, 0.5 mg, SAD arm NCT02022306, Dose 0.50, 96 Hours
  concentration at 96 h: 0 ng/mL
plasma, oral, 0.5 mg, SAD arm NCT02022306, Dose 0.50, 120 Hours
  concentration at 120 h: 0 ng/mL
plasma, oral, 0.5 mg, SAD arm NCT02022306, Dose 0.50, 144 Hours
  concentration at 144 h: 0 ng/mL
plasma, oral, 0.5 mg, SAD arm NCT02022306, Dose 0.50, 168 Hours
  concentration at 168 h: 0 ng/mL
plasma, oral, 5 mg, SAD arm NCT02022306, Dose 5.00, 1 Hour
  concentration at 1 h: 0.91 ng/mL
plasma, oral, 5 mg, SAD arm NCT02022306, Dose 5.00, 2 Hours
  concentration at 2 h: 2.32 ng/mL
plasma, oral, 5 mg, SAD arm NCT02022306, Dose 5.00, 3 Hours
  concentration at 3 h: 3.81 ng/mL
plasma, oral, 5 mg, SAD arm NCT02022306, Dose 5.00, 4 Hours
  concentration at 4 h: 4.11 ng/mL
plasma, oral, 5 mg, SAD arm NCT02022306, Dose 5.00, 6 Hours
  concentration at 6 h: 4.27 ng/mL
plasma, oral, 5 mg, SAD arm NCT02022306, Dose 5.00, 8 Hours
  concentration at 8 h: 3.7 ng/mL
plasma, oral, 5 mg, SAD arm NCT02022306, Dose 5.00, 12 Hours
  concentration at 12 h: 3.01 ng/mL
plasma, oral, 5 mg, SAD arm NCT02022306, Dose 5.00, 15 Minutes
  concentration at 15 min: 0 ng/mL
plasma, oral, 5 mg, SAD arm NCT02022306, Dose 5.00, 24 Hours
  concentration at 24 h: 2.55 ng/mL
plasma, oral, 5 mg, SAD arm NCT02022306, Dose 5.00, 30 Minutes
  concentration at 30 min: 0 ng/mL
plasma, oral, 5 mg, SAD arm NCT02022306, Dose 5.00, 48 Hours
  concentration at 48 h: 2.13 ng/mL
plasma, oral, 5 mg, SAD arm NCT02022306, Dose 5.00, 72 Hours
  concentration at 72 h: 1.75 ng/mL
plasma, oral, 5 mg, SAD arm NCT02022306, Dose 5.00, 96 Hours
  concentration at 96 h: 1.15 ng/mL
plasma, oral, 5 mg, SAD arm NCT02022306, Dose 5.00, 144 Hours
  concentration at 144 h: 0.77 ng/mL
plasma, oral, 5 mg, SAD arm NCT02022306, Dose 5.00, 168 Hours
  concentration at 168 h: 0.61 ng/mL
plasma, oral, 15 mg, SAD arm NCT02022306, Dose 15.00, 1 Hour
  concentration at 1 h: 1.46 ng/mL
plasma, oral, 15 mg, SAD arm NCT02022306, Dose 15.00, 2 Hours
  concentration at 2 h: 10.1 ng/mL
plasma, oral, 15 mg, SAD arm NCT02022306, Dose 15.00, 3 Hours
  concentration at 3 h: 13.9 ng/mL
plasma, oral, 15 mg, SAD arm NCT02022306, Dose 15.00, 4 Hours
  concentration at 4 h: 18 ng/mL
plasma, oral, 15 mg, SAD arm NCT02022306, Dose 15.00, 6 Hours
  concentration at 6 h: 18.1 ng/mL
plasma, oral, 15 mg, SAD arm NCT02022306, Dose 15.00, 8 Hours
  concentration at 8 h: 15.1 ng/mL
plasma, oral, 15 mg, SAD arm NCT02022306, Dose 15.00, 12 Hours
  concentration at 12 h: 10.7 ng/mL
plasma, oral, 15 mg, SAD arm NCT02022306, Dose 15.00, 15 Minutes
  concentration at 15 min: 0 ng/mL
plasma, oral, 15 mg, SAD arm NCT02022306, Dose 15.00, 24 Hours
  concentration at 24 h: 9.09 ng/mL
plasma, oral, 15 mg, SAD arm NCT02022306, Dose 15.00, 30 Minutes
  concentration at 30 min: 0 ng/mL
plasma, oral, 15 mg, SAD arm NCT02022306, Dose 15.00, 48 Hours
  concentration at 48 h: 6.98 ng/mL
plasma, oral, 15 mg, SAD arm NCT02022306, Dose 15.00, 72 Hours
  concentration at 72 h: 5.88 ng/mL
plasma, oral, 15 mg, SAD arm NCT02022306, Dose 15.00, 96 Hours
  concentration at 96 h: 5.19 ng/mL
plasma, oral, 15 mg, SAD arm NCT02022306, Dose 15.00, 120 Hours
  concentration at 120 h: 4.42 ng/mL
